{
  "source": "ChEMBL document CHEMBL4152332",
  "about": "“Discovery and synthesis of novel magnolol derivatives with potent anticancer activity in non-small cell lung cancer” (Eur J Med Chem, 2018)",
  "key": {"NCI-H441": {"system": "NCI-H441", "experiment": "Antiproliferative activity against human H441 cells after 72 hrs by MTT assay", "format": "functional, cell-based", "conditions": "NCI-H441, 72 h"}, "Mus musculus": {"system": "Mus musculus", "experiment": "Toxicity in Balb/c mouse xenografted with human NCI-H1975 cells assessed as effect on heart morphology at 5 to 20 mg/kg, iv treated every 2 days for 9 days", "format": "organism-based", "conditions": "in vivo"}},
  "data": [
    {"compound": "C=CCc1ccc(O)c(-c2cc(CC=C)cc(CN3CCC(N)CC3)c2O)c1", "values": [
      {"measurement": "IC50", "setting": "NCI-H441", "value": 5.63, "unit": "µM"},
      {"measurement": "Activity", "setting": "Mus musculus", "value": "Non-Toxic"}
    ]}
  ]
}
